Experimental findings from patent US5057614A, “Substituted pyrroles” (Hoffmann-La Roche Inc., priority 1988, dated 1991) are described below.

The assay concerns the target protein kinase C. Description: inhibition of protein kinase C in vitro (protein kinase-induced incorporation of 32P from [γ-32P]ATP into histone). Type of assay: biochemical. To be noted: concentration reducing by 50% the protein kinase-induced incorporation of 32P from [γ-32P]ATP into histone. An excerpt:
The IC50 figures in the following Table, represent that concentration of test compound which reduces by 50% the protein kinase-induced incorporation of ^32 P from [γ-^32 P]ATP into histone.

As to `Cn1cc(C2=C(c3cn(CCCN=C=S)c4ccccc34)C(=O)NC2=O)c2ccccc21` [3-[1-(3-isothiocyanatopropyl)-3-indolyl]-4-(1-methyl-3-indolyl)-1H-pyrrole-2,5-dione], the IC50 was found to be 8 nM.
The same measure for `Cn1cc(C2=C(c3cn(CCC(N)=O)c4ccccc34)C(=O)NC2=O)c2ccccc21` [3-[1-(2-carbamoylethyl)-3-indolyl]-4-(1-methyl-3-indolyl)-1H-pyrrole-2,5-dione]: 500 nM.
Next, `Cn1cc(C2=C(c3cn(CCCNC(N)=N[N+](=O)[O-])c4ccccc34)C(=O)NC2=O)c2ccccc21` [3-(1-methyl-3-indolyl)-4-[1-[3-(2-nitroguanidino)propyl]-3-indolyl]-1H-pyrrole-2,5-dione]: 25 nM; `Cn1cc(C2=C(c3cn(CCCSC(=N)N)c4ccccc34)C(=O)NC2=O)c2ccccc21` [3-[1-[3-(amidinothio)propyl]-3-indolyl]-4-(1-methyl-3-indolyl)-1H-pyrrole-2,5-dione]: 10 nM; `Cc1cccc(C2=C(c3cn(C)c4ccccc34)C(=O)NC2=O)c1` [3-(1-methyl-3-indolyl)-4-(3-methylphenyl)-1H-pyrrole-2,5-dione]: 1000 nM.
On to `Cn1cc(C2=C(c3cn(C)c4ccc(N)cc34)C(=O)NC2=O)c2ccccc21` [3-(5-amino-1-methyl-3-indolyl)-4-(1-methyl-3-indolyl)-1H-pyrrole-2,5-dione], for which the IC50 turned out to be 600 nM.
